# US12052991B2, “Substituted pyridinyloxybenzenes and salts thereof and use thereof as herbicidal agents” (Bayer Aktiengesellschaft, priority 2018, dated 2024)
# System: Matricaria inodora (MATIN)
# Experiment: Herbicidal pre-emergence action, test D, single sowings (Table D6)
# Assay type: in vivo
# Conditions: dosage 80 g/ha, scored after about 3 weeks
# From the text: (§1) Seeds of monocotyledonous and dicotyledonous weed plants were laid out in plastic or organic plant pots (single sowings with one species of mono- or dicotyledonous weed plant per pot) and covered with soil. The compounds of the invention, formulated in the form of wettable powders (WP) or as emulsion concentrates (EC), were then applied to the surface of the covering soil as aqueous suspension or emulsion with addition of 0.5% additive at a water application rate equivalent to 600 l/ha (converted). After the treatment, the pots were placed in a greenhouse and kept under good growth conditions for the test plants. After about 3 weeks, the effect of the preparations was scored visually in comparison with untreated controls as percentages. For example, 100% activity=the plants have died, 0% activity=like control plants. Tables D1 to D8 below show the effects of selected compounds of the general formula (I) according to Table 1 on various harmful plants and an application rate corresponding to 80 g/ha, which were obtained by the experimental procedure mentioned above.
row,Structure (SMILES),Pre-emergence action against Matricaria inodora (MATIN) [%]
1,Fc1cccc(Oc2ccc(Cl)cn2)c1-c1cc(C(F)F)no1 [Example 1-17],100
2,Fc1cc(Cl)cnc1Oc1ccccc1-c1cc(C(F)F)no1 [Example 1-36],100
3,Fc1cc(Cl)cnc1Oc1cccc(F)c1-c1cc(C(F)F)no1 [Example 1-19],100
4,FC(F)c1cc(-c2ccccc2Oc2ccc(Cl)cn2)on1 [Example 1-35],80

# System: Alopecurus myosuroides (ALOMY)
# Experiment: Herbicidal pre-emergence action, test D, single sowings (Table D1)
# Assay type: in vivo
# Conditions: 80 g/ha; scored visually after about 3 weeks; 100% = plants have died, 0% = like control plants
# From the text: as §1
row,Structure (SMILES),Pre-emergence action against Alopecurus myosuroides (ALOMY) [%]
1,Fc1cccc(Oc2ccc(Cl)cn2)c1-c1cc(C(F)F)no1 [Example 1-17],100
2,Fc1cc(Cl)cnc1Oc1cccc(F)c1-c1cc(C(F)F)no1 [Example 1-19],100

# System: harmful plants ALOMY, DIGSA, SETVI, ABUTH, AMARE, MATIN, VIOTR and VERPE
# Experiment: Herbicidal pre-emergence action (test D), summary of Tables D1-D8
# Assay type: in vivo
# Conditions: application rate of 80 g of active ingredient per hectare; summary in words
# From the text: as §1, with “plants.” for “plants. Tables D1 to D8 below show the effects of selected compounds of the general formula (I) according to Table 1 on various harmful plants and an application rate corresponding to 80 g/ha, which were obtained by the experimental procedure mentioned above.”
# Tables D1 to D8 below show the effects of selected compounds of the general formula (I) according to Table 1 on various harmful plants and an application rate corresponding to 80 g/ha, which were obtained by the experimental procedure mentioned above.
row,Structure (SMILES),herbicidal activity against the harmful plants of Tables D1-D8 in pre-emergence treatment
1,Fc1cccc(Oc2ccc(Cl)cn2)c1-c1cc(C(F)F)no1 [Example 1-17],very good herbicidal activity
2,Fc1cc(Cl)cnc1Oc1ccccc1-c1cc(C(F)F)no1 [Example 1-36],very good herbicidal activity
3,Fc1cc(Cl)cnc1Oc1cccc(F)c1-c1cc(C(F)F)no1 [Example 1-19],very good herbicidal activity
4,FC(F)c1cc(-c2ccccc2Oc2ccc(Cl)cn2)on1 [Example 1-35],very good herbicidal activity

# System: Amaranthus retroflexus (AMARE)
# Experiment: Herbicidal pre-emergence action, test D, single sowings (Table D5)
# Assay type: in vivo
# Conditions: dosage 80 g/ha, scored after about 3 weeks
# From the text: as §1
row,Structure (SMILES),Pre-emergence action against Amaranthus retroflexus (AMARE) [%]
1,Fc1cccc(Oc2ccc(Cl)cn2)c1-c1cc(C(F)F)no1 [Example 1-17],100
2,Fc1cc(Cl)cnc1Oc1ccccc1-c1cc(C(F)F)no1 [Example 1-36],100
3,Fc1cc(Cl)cnc1Oc1cccc(F)c1-c1cc(C(F)F)no1 [Example 1-19],100
4,FC(F)c1cc(-c2ccccc2Oc2ccc(Cl)cn2)on1 [Example 1-35],100
